Experimental data published in patent US9522921B2, “Photochromic spirooxazine compounds” (Sabic Global Technologies, B.V., priority 2015, dated 2016).

Experiment: Absorption spectrum in toluene upon irradiation with UV-A radiation
Assay type: physicochemical
Excerpt: The properties of the compound characterized by Structure A were investigated.

CN1c2ccccc2C(C)(C)C12C=Nc1cc(N(c3ccccc3)c3ccc4ccccc4c3)c3ccccc3c1O2 (centres unmarked) [Structure A, 1,3,3-trimethyl-N-(naphthalen-2-yl)-N-phenylspiro[indoline-2,2′-naphtho[1,2-b][1,4]oxazin]-6′-amine]
color displayed upon irradiation (upon irradiation with UV-A radiation): bluish-green color | maximum absorption (upon irradiation with UV-A radiation (open merocyanine form)): 658 nm
